# Laboratory results from patent US6593306B1, “Methods for modulation and inhibition of telomerase” (Board of Regents, The University of Texas Systems, priority 1995, dated 2003).
# Values joined by “and” are separate entries in the source; they are usually repeats but may differ in a detail not shown here. Equal entries are not always repeated.
# Legend:
# Assay type in all cases: biochemical
# [1] = target: T1, human 293 cell telomerase (Homo sapiens, UniProt O14746); test: Conventional telomerase assay (32P-dGTP as radiolabel substrate); conditions: for Inhibition of 293 Telomerase, Conventional Assay *dGTP: up to 2 mM
# T1 construct: with 20 μl of S100 enzyme extract; endogenous in cells; host or cells: 293 cells (transformed human embryonic kidney), S100 extract
# Method: (§1) Telomerase was prepared from transformed human embryonic kidney 293 cell line. Human embryonic kidney 293 cells were grown in Joklik's modified MEM niedium (Sigma, St Louis, Mo.) supplemented with 5% fetal bovine serum at 37° C. in a humidified atmosphere with 5% CO2. The cells were subcultured at 1-2×10^5 cells/ml twice a week. When the cells grew to approximately 1×10^6 cells/ml, the cells (˜2×10^9 cells) were centrifuged and transferred into polypropylene centrifuge (50 ml) tubes and kept on ice. The cells were then centrifuged in a (Beckman GS-6R) centrifuge at 1200 RPM for 10 minutes at 4° C., and resuspended in PBS. The washed cells were resuspended in 15 ml Hypobuffer Mix (10 mM HEPES, pH 8.0, 3 mM KCl, 1 mM MgCl2, 1 mM dithiothreitol, 1 μM leupeptin, 0.1 mM PMSF, 10 μM pepstatin, 0.83 μg/ml chymostatin, 0.83 μg/ml antipain, and 43.2 units/ml RNase Guard) and centrifuged. The cell pellets were resuspended in 0.75×volumes Hypobuffer [Hypobuffer Mix+40 units/ml RNase Guard (Pharmacia, N.J.) to allow the cells to swell. The cell suspensions were homogenized to allow the telomerase to “leak” into the cytosolic fraction. The lysate was then poured into new, autoclaved, 3 ml polyallomer ultracentrifuge tubes and centrifuged at 100,000×g for 1 hour at 4° C. A top lipid layer was carefully removed and discarded, and the supernatant was collected. 1/50 of the volume of 5 M NaCl was added to the clear supernatant fluid to achieve a final concentration of 0.1 M. Sterile glycerol was added until the final glycerol concentration was 20%. The enzyme solution was aliquoted into Eppendorf tubes and quickly frozen in liquid nitrogen and stored at −70° C.
# The assay is based on the ability of the telomerase enzyme in the S100 fractions to recognize an 18-base DNA primer with the DNA sequence (TTAGGG)3. DNA polymerization initiates from the 3′-OH group of the oligonucleotide. By reading from its complementary internal RNA template, telomerase adds a repeated set of 5′-TTAGGG-3′ to the original 18-base primer. Non-synchronous “starts” and “terminations” among the different enzyme complexes result in a degenerative set of different length DNA primers occurring in 6-base increments. Incorporation of [α-^32P]dGTP at the guanine positions of the 5′-TTAGGG-3′ sequence allows the newly synthesized DNA fragments to be visualized by autoradiography. The resulting image forms the characteristic “ladder” structure that is used to identify telomerase activity. The images are scanned using a phosphoimager or laser densitometer (Molecular Dynamics, Sunnyvale, Calif.). Comparisons of the total volumes under the corresponding peaks are used to quantitate the total amount of [α-^32P] incorporated in the primer extension reaction.
# The telomerase assay was initiated by mixing 20 μl of 2×reaction mix (100 mM Tris-OAc, pH 8.5, 100 mM KOAc, 10 mM β-mercaptoethanol, 2 mM spermidine, 2 mM MgCl2, 2 mM dATP, 2 mM dTTP, 2 μM oligo primer, potential inhibitors of interest at the appropriate concentration, and 50 μCi [α^32-P]dGTP) with 20 μl of S100 enzyme extract. The reaction mixture was then incubated at 30° C. for 1 hour. The reaction was stopped by incubating sequentially with 50 μl of the stop solution (10 mM Tris pH 7.5, 20 mM EDTA, 0.1 mg/ml RNase A) and 50 μl of deproteinase solution (10 mM Tris pH 7.5, 0.5% SDS, 0.3 mg/ml Proteinase K). The mixture was extracted with 50% phenol/50% chloroform (v/v). The DNA was then precipitated by adding 2.5×volumes of cold EtOH and letting it stand overnight at −70° C. The DNAs were separated on an 8% polyacrylamide/7M urea denaturing gel at 1600 V for 1.5 hours. The gel was dried and exposed to Kodak XAR-5 film to gel in −70° C. Typical autoradiographic exposures required 3-14 days.
# [2] = target: T1, human 293 cell telomerase; test: Modified telomerase assay (32P-dATP as radiolabeled substrate); conditions: for Inhibition of 293 cell telomerase, modified assay: competing radioactive nucleotide 3.12 μM [α32P]dATP
# Method: as §1
# In the conventional telomerase assay, the concentrations of both non-radiolabeled nucleotides, dATP and dTTP, are 1 mM, and the concentration of the radiolabeled [^32P]dGTP is 1.56 μM. Because of the high concentration of dATP and dTTP, the standard assay may not be suitable for determining the potential telomerase inhibition of any “Adenine or Thymine” analogs. […] All other chemicals and reaction conditions are identical to the conventional assay.
# human telomerase = target: T2, human telomerase (Homo sapiens, UniProt O14746); test: Cell-free telomerase inhibition, conventional or modified assay not stated; conditions: for IC50: Summary values, assay variant not stated, read-out: IC50
# T2 construct: telomerase in S100 extracts of transformed human fetal kidney tumor 293 cells (a processive telomerase); endogenous in cells; host or cells: human cells, (S100 extract)
# Method: Selected nucleoside triphosphates were tested in one or both of the “conventional” or “modified” telomerase assays described in Methods using the human processive and the CHO non-processive telomerases. Initially, three chain-terminators were selected: 2′,3′-dideoxythymidine triphosphate (ddTTP), 3′-fluoro-2′,3′-dideoxythymidine triphosphate (F-ddTTP), and 3′-azido-2′-, 3′-dideoxythymidine triphosphate (AZ-ddTTP) as prototype agents to investigate whether they could inhibit telomerase activity. The three compounds are dTTP analogs without a 3′-OH group for subsequent chain elongation. They may either incorporate into the telomere sequence and terminate further chain elongation or compete directly with dTTP for the substrate binding site in the telomerase reaction. In either case, telomerase activity is inhibited.
# human cancer telomerase [3] = target: T3, human cancer telomerase (Homo sapiens, UniProt O14746); test: Nucleoside triphosphate as telomerase substrate, dATP replaced in conventional reaction; conditions: for Substrate of 293 Telomerase: dATP analogs; for incorporation into telomeric ladders, replacing dATP: conventional assay, 0.125-2 mM tested
# T3 construct: endogenous in cells; host or cells: human cancer cells
# Text: As described in Section 2, telomerase catalyzes the incorporation of dATP, dTTP and [α-^32P]dGTP into a (TTAGGG)3 primer. In order to determine whether dATP analog can be incorporated into telomere, native dATP in the standard telomerase reaction is replaced with various concentrations of dATP analogs. Following the reaction, telomeric products are isolated and analyzed as described in Section 2. Similarly, native dTTP in the standard telomerase reaction can be replaced by a structurally modified dTTP analog to test whether the dTTP analog can be used as a telomerase substrate.
# human cancer telomerase [4] = target: T3, human cancer telomerase; test: Nucleoside triphosphate as telomerase substrate, dGTP replaced in modified reaction; conditions: modified assay; 1 mM dTTP, 3.12 μM [α-32P]dATP
# [5] = [α-32P]dGTP 1.56 μM, TTP and dATP 1 mM
# [6] = 0.125 mM, read-out: % of Control
# [7] = 0.25 mM, read-out: % of Control
# T3 sequence (O14746 whole entry): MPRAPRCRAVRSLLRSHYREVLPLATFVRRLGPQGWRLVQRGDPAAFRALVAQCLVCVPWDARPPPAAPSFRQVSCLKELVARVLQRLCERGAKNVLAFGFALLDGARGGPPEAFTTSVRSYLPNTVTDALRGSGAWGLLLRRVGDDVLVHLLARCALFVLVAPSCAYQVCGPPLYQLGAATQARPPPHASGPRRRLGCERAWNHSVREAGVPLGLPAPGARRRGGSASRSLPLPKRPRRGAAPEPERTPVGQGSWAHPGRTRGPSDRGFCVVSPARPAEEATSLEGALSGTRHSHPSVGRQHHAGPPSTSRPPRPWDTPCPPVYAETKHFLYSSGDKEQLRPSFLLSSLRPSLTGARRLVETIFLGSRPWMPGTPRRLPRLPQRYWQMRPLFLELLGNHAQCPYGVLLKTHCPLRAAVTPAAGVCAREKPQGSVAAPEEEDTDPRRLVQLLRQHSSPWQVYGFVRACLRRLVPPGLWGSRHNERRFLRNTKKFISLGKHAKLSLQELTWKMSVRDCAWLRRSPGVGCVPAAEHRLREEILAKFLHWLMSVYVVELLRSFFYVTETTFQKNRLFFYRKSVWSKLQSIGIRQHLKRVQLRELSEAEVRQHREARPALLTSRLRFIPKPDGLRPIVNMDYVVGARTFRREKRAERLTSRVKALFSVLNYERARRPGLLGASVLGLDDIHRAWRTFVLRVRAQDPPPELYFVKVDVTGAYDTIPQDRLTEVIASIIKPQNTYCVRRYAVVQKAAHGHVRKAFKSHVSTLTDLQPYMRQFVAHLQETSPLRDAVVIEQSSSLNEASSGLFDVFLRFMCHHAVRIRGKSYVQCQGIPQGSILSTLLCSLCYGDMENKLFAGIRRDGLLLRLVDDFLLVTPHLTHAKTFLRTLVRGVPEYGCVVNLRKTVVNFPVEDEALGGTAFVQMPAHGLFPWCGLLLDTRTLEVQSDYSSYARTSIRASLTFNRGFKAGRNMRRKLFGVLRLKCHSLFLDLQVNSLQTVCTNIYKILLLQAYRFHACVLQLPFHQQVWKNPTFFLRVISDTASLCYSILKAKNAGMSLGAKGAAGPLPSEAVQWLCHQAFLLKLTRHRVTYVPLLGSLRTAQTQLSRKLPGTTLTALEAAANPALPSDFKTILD
# T3 sequence (O60832 whole entry partner): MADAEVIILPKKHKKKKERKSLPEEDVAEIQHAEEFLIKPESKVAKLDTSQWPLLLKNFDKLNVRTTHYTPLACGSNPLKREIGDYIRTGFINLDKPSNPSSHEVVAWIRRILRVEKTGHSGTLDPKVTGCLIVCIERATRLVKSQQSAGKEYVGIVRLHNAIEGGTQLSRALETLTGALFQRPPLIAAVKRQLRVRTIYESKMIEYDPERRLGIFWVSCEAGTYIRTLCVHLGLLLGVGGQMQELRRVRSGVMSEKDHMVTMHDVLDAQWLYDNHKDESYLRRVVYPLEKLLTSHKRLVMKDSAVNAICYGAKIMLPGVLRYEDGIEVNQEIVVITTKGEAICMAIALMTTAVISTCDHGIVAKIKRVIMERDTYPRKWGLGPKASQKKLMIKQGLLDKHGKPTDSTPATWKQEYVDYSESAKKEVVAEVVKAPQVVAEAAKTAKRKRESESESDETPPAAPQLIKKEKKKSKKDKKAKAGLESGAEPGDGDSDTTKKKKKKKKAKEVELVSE
# T3 sequence (Q9NPE3 whole entry partner): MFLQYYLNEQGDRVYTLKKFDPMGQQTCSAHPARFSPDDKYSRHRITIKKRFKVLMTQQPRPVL
# T3 sequence (Q9NX24 whole entry partner): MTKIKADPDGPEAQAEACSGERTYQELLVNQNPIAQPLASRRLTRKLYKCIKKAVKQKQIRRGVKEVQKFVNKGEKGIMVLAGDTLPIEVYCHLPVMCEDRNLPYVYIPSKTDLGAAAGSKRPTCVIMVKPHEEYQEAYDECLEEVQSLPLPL
# T3 sequence (Q9NY12 whole entry partner): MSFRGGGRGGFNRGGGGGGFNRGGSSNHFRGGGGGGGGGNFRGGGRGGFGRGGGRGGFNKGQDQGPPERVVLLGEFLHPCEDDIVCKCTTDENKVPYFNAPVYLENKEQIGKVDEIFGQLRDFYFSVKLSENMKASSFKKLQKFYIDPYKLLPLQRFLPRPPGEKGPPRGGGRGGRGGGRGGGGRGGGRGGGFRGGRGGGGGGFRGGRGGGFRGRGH
# T2 sequence (O14746 whole entry): as the sequence (O14746 whole entry) above
# T2 sequence (O60832 whole entry partner): as the sequence (O60832 whole entry partner) above
# T2 sequence (Q9NPE3 whole entry partner): as the sequence (Q9NPE3 whole entry partner) above
# T2 sequence (Q9NX24 whole entry partner): as the sequence (Q9NX24 whole entry partner) above
# T2 sequence (Q9NY12 whole entry partner): as the sequence (Q9NY12 whole entry partner) above
# T1 sequence (O14746 whole entry): as the sequence (O14746 whole entry) above
# T1 sequence (O60832 whole entry partner): as the sequence (O60832 whole entry partner) above
# T1 sequence (Q9NPE3 whole entry partner): as the sequence (Q9NPE3 whole entry partner) above
# T1 sequence (Q9NX24 whole entry partner): as the sequence (Q9NX24 whole entry partner) above
# T1 sequence (Q9NY12 whole entry partner): as the sequence (Q9NY12 whole entry partner) above
smiles,measurement,setting,value
"Nc1ncnc2c1ccn2[C@H]1C[C@H](O)[C@@H](COP(=O)(O)OP(=O)(O)OP(=O)(O)O)O1 [NA023, 7-Deaza-2′-Deoxyadenosine-5′-Triphosphate]",IC50,[1]; [5],59 µM and < 100 µM
same,"Inhibition of 293 Telomerase, Conventional Assay *dGTP",[1],concentration-dependent inhibition
same,remaining activity at 1 µM,"[2]; 1.0 μM, read-out: % of Control",69%
same,remaining activity at 2.5 µM,"[2]; 2.5 μM, read-out: % of Control",46%
same,remaining activity at 5 µM,"[2]; 5.0 μM, read-out: % of Control",57%
same,remaining activity at 7.5 µM,"[2]; 7.5 μM, read-out: % of Control",40%
same,remaining activity at 10 µM,"[2]; 10 μM, read-out: % of Control",23%
same,remaining activity at 25 µM,"[2]; 25 μM, read-out: % of Control",4%
same,remaining activity at 50 µM,"[2]; 50 μM, read-out: % of Control",0%
same,remaining activity at 75 µM,"[2]; 75 μM, read-out: % of Control",0%
same,remaining activity at 100 µM,"[2]; 100 μM, read-out: % of Control",0%
same,IC50,"[2]; [α-32P]dATP 3.12 μM, TTP and dGTP 1 mM",8 µM
same,"Inhibition of 293 cell telomerase, modified assay",[2],concentration-dependent inhibition
same,IC50,human telomerase,78.5 µM
same,Substrate of 293 Telomerase,human cancer telomerase [3],Is a substrate Produces short telomere Substrate Inhibition
same,concentration above which no telomerase activity was detected,"human cancer telomerase [3]; dATP replaced, 1 mM TTP, 1.56 μM [α-32P]dGTP",> 1.5 mM
"Nc1ncnc2c1ncn2[C@H]1CC[C@@H](COP(=O)(O)OP(=O)(O)OP(=O)(O)O)O1 [NA007, 2′,3′-Dideoxyadenosine-5′-Triphosphate]",remaining activity at 125 µM,[1]; [6],118%
same,remaining activity at 250 µM,[1]; [7],116%
same,remaining activity at 500 µM,"[1]; 0.5 mM, read-out: % of Control",141%
same,remaining activity at 1000 µM,"[1]; 1.0 mM, read-out: % of Control",126%
same,remaining activity at 2000 µM,"[1]; 2.0 mM, read-out: % of Control",133%
same,"Inhibition of 293 Telomerase, Conventional Assay *dGTP",[1],No Inhibition (up to 2 mM)
same,remaining activity at 125 µM,[2]; [6],0%
same,remaining activity at 250 µM,[2]; [7],0%
same,remaining activity at 500 µM,"[2]; 0.5 mM, read-out: % of Control",0%
same,remaining activity at 1000 µM,"[2]; 1.0 mM, read-out: % of Control",0%
same,remaining activity at 2000 µM,"[2]; 2 mM, read-out: % of Control",0%
same,inhibition of human telomerase activity,human telomerase; 1 mM,inhibited
same,"incorporation into telomeric ladders, replacing dATP",human cancer telomerase [3],no apparent NA007 incorporation was detected
same,Substrate of 293 Telomerase,human cancer telomerase [3],No product formed using (TTAGGG)^3 primer
"Nc1nc2c(ncn2[C@H]2C[C@H](O)[C@@H](COP(O)(=S)OP(=O)(O)OP(=O)(O)O)O2)c(=O)[nH]1 (stereo partly drawn) [NA013, 2′-Deoxyguanosine-5′-O-(1-thiotriphosphate)]",remaining activity at 125 µM,[1]; [6],75%
same,remaining activity at 250 µM,[1]; [7],47%
same,remaining activity at 500 µM,"[1]; 0.5 mM, read-out: % of Control",0%
same,remaining activity at 1000 µM,"[1]; 1.0 mM, read-out: % of Control",0%
same,remaining activity at 2000 µM,"[1]; 2.0 mM, read-out: % of Control",0%
same,IC50,[1]; 293 cell telomerase,< 125 µM
same,"Inhibition of 293 Telomerase, Conventional Assay *dGTP",[1],concentration-dependent inhibition
same,"incorporation into telomeric ladders, replacing dGTP",human cancer telomerase [4],incorporated
same,IC50,human telomerase,81.5 µM
"Nc1nc2c(ncn2[C@H]2CC[C@@H](COP(=O)(O)OP(=O)(O)OP(=O)(O)O)O2)c(=O)[nH]1 [NA020, 2′,3′-Dideoxyguanosine-5′-Triphosphate]",remaining activity at 12.5 µM,"[1]; 0.0125 mM, read-out: % of Control",0%
same,remaining activity at 25 µM,"[1]; 0.025 mM, read-out: % of Control",0%
same,remaining activity at 50 µM,"[1]; 0.05 mM, read-out: % of Control",0%
same,remaining activity at 100 µM,"[1]; 0.1 mM, read-out: % of Control",0%
same,remaining activity at 200 µM,"[1]; 0.2 mM, read-out: % of Control",0%
same,remaining activity at 500 µM,"[1]; 0.5 mM, read-out: % of Control",0%
same,remaining activity at 1000 µM,"[1]; 1.0 mM, read-out: % of Control",0%
same,IC50,[1]; [5],< 125 µM
same,concentration at which telomerase activity is completely inhibited,[1]; lowest concentration tested,≤ 12.5 µM
same,"incorporation into telomeric ladders, replacing dGTP",human cancer telomerase [4],no apparent NA020 incorporation was detected
"Nc1ncnc2c1ncn2[C@H]1C[C@H](O)[C@@H](COP(O)(=S)OP(=O)(O)OP(=O)(O)O)O1 (stereo partly drawn) [NA006, 2′-Deoxyadenosine-5′—O—(1-Thio-Triphosphate)]",remaining activity at 125 µM,[1]; [6],120%
same,remaining activity at 250 µM,[1]; [7],103%
same,remaining activity at 500 µM,"[1]; 0.5 mM, read-out: % of Control",103%
same,remaining activity at 1000 µM,"[1]; 1.0 mM, read-out: % of Control",100%
same,remaining activity at 2000 µM,"[1]; 2.0 mM, read-out: % of Control",113%
same,"Inhibition of 293 Telomerase, Conventional Assay *dGTP",[1],No Inhibition (up to 2 mM)
same,remaining activity at 125 µM,[2]; [6],0%
same,remaining activity at 250 µM,[2]; [7],0%
same,remaining activity at 500 µM,"[2]; 0.5 mM, read-out: % of Control",0%
same,remaining activity at 1000 µM,"[2]; 1.0 mM, read-out: % of Control",0%
same,remaining activity at 2000 µM,"[2]; 2 mM, read-out: % of Control",0%
same,"Inhibition of 293 cell telomerase, modified assay",[2],concentration-dependent inhibition
same,"incorporation into telomeric ladders, replacing dATP",human cancer telomerase [3],incorporated
same,Substrate of 293 Telomerase,human cancer telomerase [3],Is a substrate No substrate inhibition
"Nc1ncnc2c1ncn2[C@H]1C[C@H](O)[C@@H](COP(=O)(O)OP(=O)(O)CP(=O)(O)O)O1 [NA004, 2′-Deoxyadenosine-5′-β,γ-Methylene Triphosphate]",% of Control,[1]; 0.125 mM,70%
same,% of Control,[1]; 0.25 mM,72%
same,% of Control,[1]; 0.5 mM,88%
same,% of Control,[1]; 1.0 mM,98%
same,% of Control,[1]; 2.0 mM,99%
same,"Inhibition of 293 Telomerase, Conventional Assay *dGTP",[1],No Inhibition (Up to 2 mM)
same,% of Control,[2]; 0.125 mM,6%
same,% of Control,[2]; 0.25 mM,1.7%
same,% of Control,[2]; 0.5 mM,0%
same,% of Control,[2]; 1.0 mM,0%
same,% of Control,[2]; 2 mM,0%
same,"Inhibition of 293 cell telomerase, modified assay",[2],concentration-dependent inhibition
same,"incorporation into telomeric ladders, replacing dATP",human cancer telomerase [3],incorporated
same,Substrate of 293 Telomerase,human cancer telomerase [3],Replace dATP Is a substrate No substrate inhibition
"Nc1nc2c(ccn2[C@H]2C[C@H](O)[C@@H](COP(=O)(O)OP(=O)(O)OP(=O)(O)O)O2)c(=S)[nH]1 [Compound 8, 6-Thio-7-deaza-2′-deoxyguanosine Triphosphate]","incorporation into telomeric ladders, replacing dGTP",human cancer telomerase [4],incorporation
